The first assay relates to PDE4. In words: PDE4 inhibition, scintillation proximity assay (SPA).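 As to PDE4 Inhibitory Activity (concentration for the inhibition rate of 50%): A below 100 nM B 100 to below 1000 nM C 1000 nM or more.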 As to conditions: scintillation proximity assay (SPA); evaluated as classes A, B, C; read-out: PDE4 Inhibitory Activity (concentration for the inhibition rate of 50%). It is filed as biochemical. The gist of the method:
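Scintillation proximity read-out: [2,8-3H]-cAMP hydrolysis by PDE4 ran 120 min at room temperature in Tris-HCl pH 7.4 buffer with 8.3 mM MgCl2, 1.7 mM EGTA and 3 mg/mL BSA. Bead-bound product (YSi-SPA with ZnSO4, 15 min) counted; blank lacks enzyme, control has DMSO only.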
Consider `COC(C)(c1cc(-c2nccs2)c2oc(N3CC4CCCC(C3)N4)nc2c1)C(F)(F)F` (stereo not shown) [Example 162], for which the IC50 was below 100 nM.

Turning to `OCC(F)(F)Oc1ccc(-c2cscn2)c2oc(N3CC4CCC(C3)N4)nc12` [Example 312, 2-((2-(3,8-Diazabicyclo[3.2.1]octan-3-yl)-7-(thiazol-4-yl)benzo[d]oxazol-4-yl)oxy)-2,2-difluoroethan-1-ol], the IC50 was below 100 nM.

With `CCC(O)c1cc(-c2nccs2)c2oc(N3CC4CCC(C3)N4)nc2c1OC(F)(F)F` (stereo not shown) [Example 204, 1-(2-(3,8-Diazabicyclo[3.2.1]octan-3-yl)-7-(thiazol-2-yl)-4-(trifluoromethoxy)benzo[d]oxazol-5-yl)propan-1-ol], the IC50 was below 100 nM.

Take `CS(=O)(=O)c1cc(-c2nccs2)c2oc(N3CC4CCCC(C3)N4)nc2c1` [Example 47, 2-(3,9-Diazabicyclo[3.3.1]nonan-3-yl)-5-(methylsulfonyl)-7-(thiazol-2-yl)benzo[d]oxazole]: the IC50 was below 100 nM.

In the case of `Clc1ccc(-c2nccs2)c2oc(N3CC4CCC(C3)N4)nc12` [Example 36, 2-(3,8-Diazabicyclo[3.2.1]octan-3-yl)-4-chloro-7-(thiazol-2-yl)benzo[d]oxazole], the IC50 is below 100 nM.

As for `COC(C)(C)c1cc(-c2nccs2)c2oc(N3CC4CCC(C3)N4)nc2c1OC(F)(F)F` [Example 198, 2-(3,8-Diazabicyclo[3.2.1]octan-3-yl)-5-(2-methoxypropan-2-yl)-7-(thiazol-2-yl)-4-(trifluoromethoxy)benzo[d]oxazole], the IC50 was below 100 nM.

For the molecule `OCc1ccc(-c2nccs2)c2oc(N3CC4CCCC(C3)N4)nc12` [Example 134, (2-(3,9-Diazabicyclo[3.3.1]nonan-3-yl)-7-(thiazol-2-yl)benzo[d]oxazol-4-yl)methanol], the IC50 is below 100 nM.

With `CC(=O)c1cc(-c2nccs2)c2oc(N3CC4CCC(C3)N4)nc2c1OC(F)(F)F` [Example 213, 1-(2-(3,8-Diazabicyclo[3.2.1]octan-3-yl)-7-(thiazol-2-yl)-4-(trifluoromethoxy)benzo[d]oxazol-5-yl)ethan-1-one], the IC50 is below 100 nM.

Take `NC(=O)COC(c1ccc(-c2nccs2)c2oc(N3CC4CC(C3)N4)nc12)C(F)(F)F` (stereo not shown) [Example 256, 2-(1-(2-(3,6-Diazabicyclo[3.1.1]heptan-3-yl)-7-(thiazol-2-yl)benzo[d]oxazol-4-yl)-2,2,2-trifluoroethoxy)acetamide]: the IC50 was below 100 nM.

As to `CC(O)c1cc(-c2nccs2)c2oc(N3CC4CC(C3)N4)nc2c1OC(F)(F)F` (stereo not shown) [Example 203, 1-(2-(3,6-Diazabicyclo[3.1.1]heptan-3-yl)-7-(thiazol-2-yl)-4-(trifluoromethoxy)benzo[d]oxazol-5-yl)ethan-1-ol], the IC50 was below 100 nM.

For `CC(C)(O)c1cc(-c2nccs2)c2oc(N3CC4CC(C3)N4)nc2c1` [Example 173, 2-(2-(3,6-Diazabicyclo[3.1.1]heptan-3-yl)-7-(thiazol-2-yl)benzo[d]oxazol-5-yl)propan-2-ol], the IC50 is below 100 nM.

`CCOC(c1cc(-c2nccs2)c2oc(N3CC4CCC(C3)N4)nc2c1)C(F)(F)F` (stereo not shown) [Example 148, 2-(3,8-Diazabicyclo[3.2.1]octan-3-yl)-5-(1-ethoxy-2,2,2-trifluoroethyl)-7-(thiazol-2-yl)benzo[d]oxazole]: the IC50 is below 100 nM.

Turning to `OC(c1cc(-c2cscn2)c2oc(N3CC4CC(C3)N4)nc2c1OC(F)(F)F)C(F)F` (stereo not shown) [Example 300, 1-(2-(3,6-Diazabicyclo[3.1.1]heptan-3-yl)-7-(thiazol-4-yl)-4-(trifluoromethoxy)benzo[d]oxazol-5-yl)-2,2-difluoroethan-1-ol], the IC50 was below 100 nM.

For `CC(C)(O)c1cc(-c2cscn2)c2oc(N3CC4CCC(C3)N4)nc2c1OC(F)(F)F` [Example 291, 2-(2-(3,8-Diazabicyclo[3.2.1]octan-3-yl)-7-(thiazol-4-yl)-4-(trifluoromethoxy)benzo[d]oxazol-5-yl)propan-2-ol], the IC50 is below 100 nM.

Regarding `FC(F)(F)COC(c1cc(-c2nccs2)c2oc(N3CC4CCC(C3)N4)nc2c1)C(F)(F)F` (stereo not shown) [Example 146, 2-(3,8-Diazabicyclo[3.2.1]octan-3-yl)-7-(thiazol-2-yl)-5-(2,2,2-trifluoro-1-(2,2,2-trifluoroethoxy)ethyl)benzo[d]oxazole], the IC50 was below 100 nM.

For `COc1cc(-c2nccs2)c2oc(N3CC4CCC(C3)N4)nc2c1` [Example 60, 2-(3,8-Diazabicyclo[3.2.1]octan-3-yl)-5-methoxy-7-(thiazol-2-yl)benzo[d]oxazole], the IC50 was below 100 nM.

With `NS(=O)(=O)c1cc(-c2nccs2)c2oc(N3CC4CCCC(C3)N4)nc2c1` [Example 59, 2-(3,9-Diazabicyclo[3.3.1]nonan-3-yl)-7-(thiazol-2-yl) benzo[d]oxazole-5-sulfonamide], the IC50 is below 100 nM.

With `FC(F)(F)c1cc(-c2nccs2)c2oc(N3CC4CCCC(C3)N4)nc2c1` [Example 53, 2-(3,9-Diazabicyclo[3.3.1]nonan-3-yl)-7-(thiazol-2-yl)-5-(trifluoromethyl)benzo[d]oxazole], the IC50 is below 100 nM.

As for `OC1(c2cc(-c3nccs3)c3oc(N4CC5CCC(C4)N5)nc3c2OC(F)(F)F)CC1` [Example 274, 1-(2-(3,8-Diazabicyclo[3.2.1]octan-3-yl)-7-(thiazol-2-yl)-4-(trifluoromethoxy)benzo[d]oxazol-5-yl)cyclopropan-1-ol], the IC50 is below 100 nM.

`FC(F)(F)Oc1ccc(-c2nccs2)c2oc(N3CC4CCCC(C3)N4)nc12` [Example 30, 2-(3,9-Diazabicyclo[3.3.1]nonan-3-yl)-7-(thiazol-2-yl)-4-(trifluoromethoxy)benzo[d]oxazole]: the IC50 is below 100 nM.

As to `CC(O)c1cc(-c2nccs2)c2oc(N3CC4CC(C3)N4)nc2c1` (stereo not shown) [Example 107, 1-(2-(3,6-Diazabicyclo[3.1.1]heptan-3-yl)-7-(thiazol-2-yl)benzo[d]oxazol-5-yl)ethan-1-ol], the IC50 lay in the range of 100 to 1000 nM.

As for `Oc1ccc(-c2nccs2)c2oc(N3CC4CC(C3)N4)nc12` [Example 79, 2-(3,6-Diazabicyclo[3.1.1]heptan-3-yl)-7-(thiazol-2-yl)benzo[d]oxazol-4-ol], the IC50 is below 100 nM.

Regarding `FC(F)(F)COC(c1ccc(-c2nccs2)c2oc(N3CC4CC(C3)N4)nc12)C(F)(F)F` (stereo not shown) [Example 223, 2-(3,6-Diazabicyclo[3.1.1]heptan-3-yl)-7-(thiazol-2-yl)-4-(2,2,2-trifluoro-1-(2,2,2-trifluoroethoxy)ethyl)benzo[d]oxazole], the IC50 is below 100 nM.

In the case of `CC(C)Oc1cc(-c2nccs2)c2oc(N3CC4CCC(C3)N4)nc2c1` [Example 68, 2-(3,8-Diazabicyclo[3.2.1]octan-3-yl)-5-isopropoxy-7-(thiazol-2-yl)benzo[d]oxazole], the IC50 is below 100 nM.

For the molecule `CC(O)C(F)(F)Oc1ccc(-c2cscn2)c2oc(N3CC4CC(C3)N4)nc12` (stereo not shown) [Example 309, 1-((2-(3,6-Diazabicyclo[3.1.1]heptan-3-yl)-7-(thiazol-4-yl)benzo[d]oxazol-4-yl)oxy)-1,1-difluoropropan-2-ol], the IC50 is below 100 nM.

With `CC(=O)c1cc(-c2nccs2)c2oc(N3CC4CCC(C3)N4)nc2c1C(F)(F)F` [Example 179, 1-(2-(3,8-Diazabicyclo[3.2.1]octan-3-yl)-7-(thiazol-2-yl)-4-(trifluoromethyl)benzo[d]oxazol-5-yl)ethan-1-one], the IC50 was below 100 nM.

As to `COC(C)(C)c1cc(-c2nccs2)c2oc(N3CC4CCC(C3)N4)nc2c1` [Example 175, 2-(3,8-Diazabicyclo[3.2.1]octan-3-yl)-5-(2-methoxypropan-2-yl)-7-(thiazol-2-yl)benzo[d]oxazole], the IC50 was below 100 nM.

Regarding `COC(c1cc(-c2nccs2)c2oc(N3CC4CC(C3)N4)nc2c1OC(F)(F)F)C(F)F` (stereo not shown) [Example 208, 2-(3,6-Diazabicyclo[3.1.1]heptan-3-yl)-5-(2,2-difluoro-1-methoxyethyl)-7-(thiazol-2-yl)-4-(trifluoromethoxy) benzo[d]oxazole], the IC50 was below 100 nM.

Take `CC(C)(O)c1cc(-c2nccs2)c2oc(N3CC4CCCC(C3)N4)nc2c1C(F)(F)F` [Example 166, 2-(2-(3,9-Diazabicyclo[3.3.1]nonan-3-yl)-7-(thiazol-2-yl)-4-(trifluoromethyl)benzo[d]oxazol-5-yl)propan-2-ol]: the IC50 was below 100 nM.

Still in this assay, the particulars now being: scintillation proximity assay; class symbols; read-out: PDE4 Inhibitory Activity.
On to `FC(F)(/C=C/c1cccnc1)Oc1ccc(-c2nccs2)c2oc(N3CC4CC(C3)N4)nc12` [Example 406, (E)-2-(3,6-diazabicyclo [3.1.1]heptan-3-yl)-4-((1,1-difluoro-3-(pyridin-3-yl)allyl)oxy)-7-(thiazol-2-yl) benzo[d] oxazole], for which the IC50 is below 100 nM.

Take `CN(C)C(=O)C(F)(F)Oc1ccc(-c2nccs2)c2oc(N3CC4CC(C3)N4)nc12` [Example 408, 2-((2-(3,6-diazabicyclo [3.1.1]heptan-3-yl)-7-(thiazol-2-yl)benzo[d]oxazol-4-yl)oxy)-2,2-difluoro-N,N-dimethyl-acetamide]: the IC50 was below 100 nM.

On to `CCC(F)(F)Oc1ccc(-c2nccs2)c2oc(N3CC4CC(C3)N4)nc12` [Example 402, 2-(3,6-diazabicyclo [3.1.1]heptan-3-yl)-4-(1,1-difluoro-propoxy)-7-(thiazol-2-yl) benzo[d] oxazole], for which the IC50 was below 100 nM.

`CNS(=O)(=O)c1ccc(-c2nccs2)c2oc(N3CC4CC(C3)N4)nc12` [Example 386, 2-(3,6-diazabicyclo[3.1.1]heptan-3-yl)-N-methyl-7-(thiazol-2-yl)benzo[d] oxazole-4-sulfonamide]: the IC50 is below 100 nM.

In the case of `c1csc(-c2ccc(C3CC3)c3nc(N4CC5CC(C4)N5)oc23)n1` [Example 344, 2-(3,6-diazabicyclo [3.1.1]heptan-3-yl)-4-cyclopropyl-7-(thiazol-2-yl)benzo[d] oxazole], the IC50 was below 100 nM.
